Data on three molecules can be found in patent EP4274570B1, “ACTIVATORS OF THE BMP/SMAD AXIS FOR USE IN TREATING AND/OR PREVENTING MUSCLE ATROPHY” (Università Degli Studi Di Torino, priority 2021, dated 2022).

In data set [1] the test system is C2C12 myotubes. Description: Measurement of C2C12 myotube diameters. The format is cell-based, murine. Particulars: for C26 CM-induced atrophy (myotube diameter): 10% C26 conditioned medium, FK506 1µg/mL or siFKBP12 transfection; for hypertrophy (myotube diameter): BMP6 1ng/mL as positive control. The method, then: When the confluence of 80-90% is reached, they are differentiated into myotubes in DMEM/2% HS medium for 4 days.
For the signaling experiments, two hours prior to treatment, the DMEM differentiation medium without serum was changed, followed by 1h of treatment with FK506 (1 µg/mL) or BMP6 (30ng/mL).
The myotubes were analyzed 48h after transfection to establish the diameters and lysates for RNA extraction.
Photographs of the myotubes were taken using 20X magnification bright field microscopy (Zeiss) and their diameter was measured using FIJI software.

A further data set concerns tibialis anterior. Particulars: mice treated for 9 days; cited from earlier work.
Data set [2] deals with post-transplant diabetes mellitus rats. Particulars: 1 mg/kg/d; cited from earlier work.
Data set [3] concerns pGL3-BMP responsive element (BRE)-Luc. Description: Luciferase assay with pGL3-BMP responsive element (BRE)-Luc reporter in C2C12 myoblasts. In kind it is cell-based, murine. Particulars: FK506 1µg/mL, 5h, compared with BMP6 1ng/mL. The method, then:
C2C12 myoblasts were transfected with the pGL3-BMP responsive element (BRE)-Luc plasmid (Addgene #45126) to measure the promoter activation by the SMAD1/5/8 proteins. The cells were treated with FK506 (1µg/mL) or BMP6 (1ng/mL) 15h posttransfection. The luminescence was measured using Dual-Luciferase Reporter Assay System (Promega) after 5h of treatment according to the manufacturer's instructions.

For a further data set, the system named is SMAD1/5. Nature of the data set: Western blot of SMAD1/5 phosphorylation in C2C12 myotubes. In kind it is cell-based, murine. Particulars: FK506 1µg/mL. As to the method: (§1) The myotubes were treated with 10% C26 conditioned medium (C26 CM (9)) or Activin A (1ng/mL R&D # 338-AC), FK506 (1µg/mL Cayman Chemical, #10007965), BMP6 (1ng/mL R&D Systems, 6325-BM), cyclosporine A (1µM Tocris Biosciences #1101), DMH1 (5µM CAS No 1206711-16-1) or with DMEM/2%HS (CTR) differentiation medium for 24h to measure their diameter. For the signaling experiments, two hours prior to treatment, the DMEM differentiation medium without serum was changed, followed by 1h of treatment with FK506 (1 µg/mL) or BMP6 (30ng/mL). The protein ubiquitination flow was measured by treating in C2C12 myotubes with FK506 1µg/mL, Activin A 1ng/mL (ACTA), and the combination of the two, with and without MG132 proteasome inhibitor (Senta Cruz Biotechnology, SC-351846), 1µM for 1h.
(§2) C2C12 myotubes were lysed in RIPA lysis buffer (150mM NaCl, 50mM Tris-HCl, 0.5% sodium deoxycholate, 1.0% Triton X-100, 0.1% SDS, and 1mM EDTA) with protease and phosphatase inhibitors (Roche, #0490837001, #11697498001). The protein concentration was determined using the BCA assay (Thermo Fisher Scientific). 15µg of proteins from cell lysates were loaded for performing SDS-PAGE, then transferred onto PVDF membrane for immunoblotting analysis. The primary antibodies used are: SMAD1 (Cell Signaling, #9743), P-SMAD1/5 (Cell Signaling, #13820T), vinculin (Cell Signaling #4650), ubiquitin (Abcam, #7780).
On the technique in general: In western blotting, separated proteins are transferred to a membrane and probed.

The subject of the next data set is Balb C mice. Description: Hypertrophy experiment in Balb C mice without tumor, oral treatment. In kind it is in vivo. As to the method:
(§3) FK506 (Cayman Chemical, #10007965) was dissolved in DMSO (5mg/mL) and then diluted in a 5% glucose and water solution for oral administration in order to reach the final concentration of 0.02mg/kg. All the mice were subjected to one day of treatment, prior to inoculation of colon-26 (C26) adenocarcinoma cells into the right flank of three-month-old Balb C females (Charles River #028) (0.7x10^6 cells/mouse). All the mice were treated daily with FK506 (0.02 mg/Kg) or 5% glucose buffer DMSO vehicle.
(§4) The gastrocnemii, tumors, and subcutaneous and inguinal adipose tissue were isolated, weighed, and normalized for the tibia length of each mouse.
4-month-old Balb C females were treated orally every day for 4 weeks (5 days per week), with 0.02mg/Kg/day FK506 in 5% glucose solution or with vehicle (CTR). The maximum strength was measured weekly with the Grip Strength Test.

Data set [4] deals with C2C12 myotubes. Description: Protein ubiquitination flow after proteasome inhibition (MG132) in C2C12 myotubes. The format is cell-based, murine. The following applies: FK506 1µg/mL plus Activin A 1ng/mL, with and without MG132 1µM, 1h. As to the method: as §1, §2
The test system of a further data set is immune populations. Description: FACS of immune populations in blood, spleens and tumors of C26 mice. In kind it is in vivo. Particulars: FK506 0.02 mg/Kg daily oral. The method, then:
The blood was extracted and incubated with erythrocyte lysis buffer for 10 minutes at room temperature. After washing with PBS, the cells were collected, incubated with Fc-receptor blocker (anti-CD16/CD32 antibody, BD Bioscience #101302) and stained for 30 minutes at 4°C with the antibodies.
The primary tumors were extracted, crushed, and digested with collagenase IV (1mg/mL) (Sigma Aldrich #C4-28) in RPMI-1640 at 37°C for 1h. After washing the tissues with RPMI-1640/10% FBS, the suspension was passed through a 70-µm pore filter, centrifuged at 1400rpm for 10 minutes and incubated with the erythrocyte lysis buffer (155 mM NH4Cl, 15.8 mM Na2CO3, 1 mM EDTA, pH 7.3) for 10 minutes at room temperature. After washing with RPMI-1640/10% FBS, 1 million cells were resuspended in PBS, treated with Fc-receptor blocker (anti-CD16/CD32 antibody, BD Bioscience #101302) and stained for 30 minutes at 4°C with the antibodies.

Data set [5] relates to BMP-SMAD1/5/8 signaling pathway. The following applies: hepatocytes; cited from earlier work.
Data set [6] deals with Colon-26 (C26) murine tumor cachexia model. Description: Colon-26 (C26) tumor cachexia model, oral treatment. The format is in vivo. The following applies: C26 mice, FK506 0.02 mg/Kg daily oral. As to the method: as §3
Maximum muscle strength was measured on the day of inoculation (day 0) and the day of sacrifice (day 11) using the Grip Strength Test (Bioseb).
as §4
The fresh gastrocnemii were frozen in liquid nitrogen-cooled isopentane and stored at -80°C. 7µm cross-sections were performed using a cryostat. Immunofluorescence was performed by securing the tissues in 4% PFA, blocking with […] in PBS before incubating with the primary antibody for laminin (sc-59854), and with the secondaries (ALEXA488) and DAPI (Abcam 228549). The photographs were taken with a fluorescence microscope to evaluate the cross-sectional area of the fibers.
The total RNA from the frozen tissues was extracted with TRIzol reagent (Invitrogen) following the manufacturer's instructions. 0.5-1µg of total RNA were retrotranscribed using High Capacity cDNA Reverse Transcriptase kit (Applied Biosystems). The cDNA was analyzed with Real Time Quantitative PCR (ABI PRISM 7900HT FAST Real-Time PCR system, Applied Biosystems) using Luna Universal Probe qPCR master mix (Nebb) and Universal Probe Library system (Roche Applied Science). The relative mRNA levels were calculated using the 2-ΔΔCT method and normalizing for the GAPDH levels. The following primers were used: Atrogin1 F: 5'-[…]-3' (SEQ ID No. 1), R: 5' […]-3' (SEQ ID No. 2); Murf1 F: 5'[…]-3' (SEQ ID No. 3), R: 5'-tcgtcttcgtgttccttgc-3' (SEQ ID No. 4); Musa1 F: 5'-gagaagccagggtttgagc-3' (SEQ ID No. 5), R: 5'-[…]-3' (SEQ ID No. 6); Cathepsin L F: 5'-[…]-3' (SEQ ID No. 7), R: 5'-[…]-3' (SEQ ID No. 8); FKBP12 F: 5'-atgggagtgcaggtggag-3' (SEQ ID No. 9), R: 5'-[…]-3' (SEQ ID No. 10). GAPDH F: 5'-[…]-3' (SEQ ID No. 11), R: 5'-[…]-3' (SEQ ID No. 12).

For `CC(C)Oc1ccc(-c2cnc3c(-c4ccnc5ccccc45)cnn3c2)cc1` [DMH1], the “effect of DMH1 on tacrolimus-induced hypertrophy and protection from C26 CM-induced atrophy (myotube diameter)” value in the data set with C2C12 myotubes [1] (DMH1 5µM, FK506 1µg/mL, 10% C26 CM, 24h) is “nullifies both the hypertrophic effect of tacrolimus and the protection of C26 (C26 CM) tumor medium-induced atrophy”.
On to `c1ccc2c(-c3cnn4cc(-c5ccc(N6CCNCC6)cc5)cnc34)ccnc2c1` [LDN-193189], for which, in the data set with tibialis anterior, the “atrophy in the myofibers of the tibialis anterior” value is given as 21% and the “baseline phosphorylation levels of Smad1/5/8” value is on record as “reduction in baseline phosphorylation levels of Smad1/5/8”.
Consider `C=CC[C@@H]1/C=C(\C)C[C@H](C)C[C@H](OC)[C@H]2O[C@@](O)(C(=O)C(=O)N3CCCC[C@H]3C(=O)O[C@H](/C(C)=C/[C@@H]3CC[C@@H](O)[C@H](OC)C3)[C@H](C)[C@@H](O)CC1=O)[C@H](C)C[C@@H]2OC` [tacrolimus], for which the “muscle atrophy at high immunosuppressive doses” value in [2] was “induces muscle atrophy”. Also, the BRE-Luc reporter activation result in [3] is recorded as “capable of exceeding the BMP6 positive control in reporter activation”. Further, the “phosphorylation levels of SMAD1/5” value with SMAD1/5 (1h, without stimulation by any extracellular ligand) was “capable of increasing the phosphorylation levels of SMAD1/5”. Further, the “effect of tacrolimus on phosphorylation of the Smad1/5/8 proteins under ALK2 silencing” value in the data set on SMAD1/5 (siALK2-transfected C2C12 myotubes) was “nullifies the effect of tacrolimus”. Besides, the “C26 CM-induced atrophy (myotube diameter)” value was “capable of preventing C26 CM-induced atrophy” in the data set on C2C12 myotubes [1] (24h, listed as FK506) and “capable of preventing” in the data set with C2C12 myotubes [1] (24h, listed as Tacrolimus). Further, the “hypertrophy (myotube diameter)” value is on record as “capable of inducing significant hypertrophy” in the data set with C2C12 myotubes [1] (FK506 1µg/mL, 24h, listed as FK506) and “induces levels of hypertrophy comparable to BMP6” in the data set on C2C12 myotubes [1] (FK506 1µg/mL, 24h, listed as Tacrolimus). Further, in the data set with C2C12 myotubes [1] (FK506 1µg/mL, Activin A 1ng/mL, 24h), the “ACTA-induced atrophy (myotube diameter)” value is reported as “capable of preventing”. Further, the “effect of tacrolimus on myotube diameter under ALK2 silencing” value with C2C12 myotubes [1] (siALK2-transfected C2C12 myotubes, FK506 1µg/mL) was “nullifies the effect of tacrolimus”. In addition, the “maximum muscle strength (Grip Strength test)” value in the data set with Balb C mice (0.02mg/Kg/day oral, 4 weeks, day 29, versus vehicle (CTR)) is recorded as “significantly increases maximum muscle strength”; in data set [6] (end of the experiment (day 11)), “increased maximum muscle strength”. The muscle mass entry in the data set on Balb C mice (oral non-immunosuppressive doses, 11 days) is on record as “capable of increasing the mass of the quadriceps”. In the data set with C2C12 myotubes [4], the “ACTA-induced increase in protein ubiquitination” value is on record as “completely reversed”. The “amount and state of activation of the main immune populations” value with immune populations is “has no effect on these parameters”. The “phosphorylation of SMAD 1/5/8 proteins” value in [5] is given as “increasing the phosphorylation of SMAD 1/5/8 proteins”. Moreover, the “transcription of their epcidin target” value in data set [5] is reported as “increasing”. The body weight loss result in data set [6] (11 days) is on record as “capable of preventing”. The “fat loss (subcutaneous and inguinal adipose tissue)” value in data set [6] (11 days) was “capable of preventing”. Also, the “weight of the tumor” value in data set [6] (at sacrifice) is recorded as “without altering the weight of the tumor”. Moreover, in data set [6] (normalized for GAPDH), the “expression of atrogens (Atrogin 1, MuRF-1, Musa1, Cathepsin L mRNA) in the gastrocnemii” value was “reduced expression of all the atrogens”. Also, the “muscle atrophy in terms of muscle fiber diameter” value in [6] (gastrocnemius cross-section) is “capable of preventing muscle atrophy”. Moreover, the “muscle atrophy in terms of skeletal muscle weight” value in [6] (gastrocnemius weight normalized for tibia length) is given as “capable of preventing muscle atrophy”.
